According to the supplement of paper PMC10307832:

Experiments:
Experiment in all cases: relative viability (nuclei count vs DMSO), 5 days (fraction); higher = more cells survive
Quizartinib + Linsitinib = compound: CC(C)(C)c1cc(NC(=O)Nc2ccc(-c3cn4c(n3)sc3cc(OCCN5CCOCC5)ccc34)cc2)no1 [Quizartinib] + C[C@]1(O)C[C@@H](c2nc(-c3ccc4ccc(-c5ccccc5)nc4c3)c3c(N)nccn32)C1 [Linsitinib] (partner 1 µM)
How it was run: (§1)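 Relative viability equals treated-well nuclei counts divided by vehicle-well nuclei counts. Counts came from 4× images of lung cancer cell lines grown in 1536-well plates for 5 days after pin-tool dosing on the day after seeding. Dosing used one drug alone or a fixed anchor-drug dose plus five library-drug doses (not always all listed) in √10 steps, and values are medians of duplicate plates.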

YM155 + Lapatinib = compound: COCC[n+]1c2c(n(Cc3cnccn3)c1C)C(=O)c1ccccc1C2=O [YM155] + CS(=O)(=O)CCNCc1ccc(-c2ccc3ncnc(Nc4ccc(OCc5cccc(F)c5)c(Cl)c4)c3c2)o1 [Lapatinib] (partner 2 µM)
How it was run: as §1

Quizartinib + Dasatinib = compound: CC(C)(C)c1cc(NC(=O)Nc2ccc(-c3cn4c(n3)sc3cc(OCCN5CCOCC5)ccc34)cc2)no1 [Quizartinib] + Cc1nc(Nc2ncc(C(=O)Nc3c(C)cccc3Cl)s2)cc(N2CCN(CCO)CC2)n1 [Dasatinib] (partner 0.075 µM)
How it was run: as §1

Quizartinib + Pemetrexed = compound: CC(C)(C)c1cc(NC(=O)Nc2ccc(-c3cn4c(n3)sc3cc(OCCN5CCOCC5)ccc34)cc2)no1 [Quizartinib] + Nc1nc2[nH]cc(CCc3ccc(C(=O)N[C@@H](CCC(=O)O)C(=O)O)cc3)c2c(=O)[nH]1 [Pemetrexed] (partner 0.2 µM)
How it was run: as §1

Cell Line | relative viability (Quizartinib + Linsitinib; first compound 0.001 µM) | relative viability (Quizartinib + Linsitinib; first compound 0.003162 µM) | relative viability (Quizartinib + Linsitinib; first compound 0.01 µM) | relative viability (Quizartinib + Linsitinib; first compound 0.03162 µM) | relative viability (Quizartinib + Linsitinib; first compound 0.1 µM) | relative viability (YM155 + Lapatinib; first compound 0.002 µM) | relative viability (YM155 + Lapatinib; first compound 0.006325 µM) | relative viability (YM155 + Lapatinib; first compound 0.02 µM) | relative viability (YM155 + Lapatinib; first compound 0.06325 µM) | relative viability (Quizartinib + Dasatinib; first compound 0.001 µM) | relative viability (Quizartinib + Dasatinib; first compound 0.003162 µM) | relative viability (Quizartinib + Dasatinib; first compound 0.01 µM) | relative viability (Quizartinib + Dasatinib; first compound 0.03162 µM) | relative viability (Quizartinib + Dasatinib; first compound 0.1 µM) | relative viability (Quizartinib + Pemetrexed; first compound 0.001 µM) | relative viability (Quizartinib + Pemetrexed; first compound 0.003162 µM) | relative viability (Quizartinib + Pemetrexed; first compound 0.01 µM) | relative viability (Quizartinib + Pemetrexed; first compound 0.03162 µM) | relative viability (Quizartinib + Pemetrexed; first compound 0.1 µM)
201T | 1.06 | 1.04 | 0.969 | 1.06 | 1.11 | 1.02 | 0.992 | 0.956 | 0.96 | 0.588 | 0.563 | 0.621 | 0.574 | 0.57 | 0.272 | 0.311 | 0.306 | 0.302 | 0.365
A549 |  | 0.49 | 0.61 | 0.611 | 0.787 | 0.93 | 0.872 | 0.598 | 0.0781 |  |  |  |  |  |  |  |  |  | 
A-427 | 1.04 | 1.08 | 1.14 | 1.04 | 1.12 | 1 | 0.994 | 1.07 | 0.987 |  | 0.718 | 0.706 | 0.657 | 0.663 | 0.781 | 0.96 | 0.84 | 0.884 | 0.954
ABC-1 | 0.662 | 0.732 | 0.702 | 0.675 | 0.722 | 1.13 |  | 1.18 | 0.518 | 0.578 | 0.572 | 0.661 |  | 0.502 |  |  |  |  | 
BEN | 0.739 | 0.779 | 0.903 | 0.815 | 0.712 | 0.59 | 0.746 | 0.782 | 0.86 | 0.292 | 0.335 | 0.347 | 0.257 | 0.318 | 0.739 | 0.959 | 0.681 | 0.659 | 0.78
CAL-12T | 0.744 | 0.771 | 0.976 | 0.882 | 0.986 |  | 0.768 | 0.61 | 0.588 | 0.382 | 0.489 | 0.535 | 0.388 | 0.328 | 1.01 | 1.01 | 1.36 | 0.998 | 1.49
COR-L23 | 0.829 | 0.9 | 1.05 | 0.748 | 0.92 | 0.837 | 0.917 | 0.503 | 0.15 | 0.452 | 0.437 | 0.557 | 0.414 | 0.461 | 0.193 | 0.189 | 0.208 | 0.194 | 0.211
COR-L 105 | 0.704 | 0.846 | 1.23 | 0.733 | 0.95 | 0.33 | 0.353 | 0.337 | 0.368 | 0.385 | 0.408 | 0.413 | 0.381 | 0.283 | 0.985 | 1.18 | 1.29 |  | 1.3
Calu-6 | 0.975 | 0.884 | 0.944 | 0.959 | 0.883 | 1.04 | 0.992 | 0.271 | 0.143 |  |  |  |  |  |  |  |  |  | 
ChaGo-K-1 |  |  |  |  |  |  |  |  |  | 0.595 | 0.543 | 0.588 | 0.606 | 0.56 |  | 0.247 | 0.264 | 0.26 | 0.264
EBC-1 | 0.801 | 0.972 | 0.956 | 0.989 | 0.948 | 0.229 | 0.203 | 0.208 | 0.196 |  |  |  |  |  |  |  |  |  | 
EKVX | 0.92 | 1 | 1.02 | 0.954 | 1.1 | 0.214 | 0.286 | 0.221 | 0.182 |  | 0.588 | 0.514 | 0.56 | 0.602 |  | 0.363 | 0.434 | 0.39 | 0.351
EMC-BAC-2 | 0.712 | 0.748 | 0.815 | 0.789 | 0.838 | 0.795 | 0.899 | 0.874 | 0.817 | 0.296 | 0.299 | 0.294 |  | 0.375 | 0.365 | 0.44 | 0.451 |  | 0.493
EPLC-272H | 1.01 | 1.38 | 1.32 | 1.32 | 1.14 | 1.05 | 0.854 | 0.941 | 0.949 | 0.326 | 0.366 | 0.4 | 0.38 | 0.377 | 0.255 | 0.361 | 0.4 | 0.26 | 0.305
H3255 | 0.854 | 0.826 | 1.01 | 0.896 | 1.06 | 0.24 | 0.241 | 0.265 | 0.263 | 0.414 | 0.347 | 0.366 | 0.346 | 0.345 | 0.531 | 0.579 | 0.546 | 0.593 | 0.586
HARA | 0.585 | 0.906 | 0.953 | 0.958 | 0.974 | 0.623 | 0.862 | 0.701 | 0.959 |  | 0.231 | 0.252 | 0.215 | 0.268 | 0.257 | 0.266 | 0.266 | 0.222 | 0.304
HCC-15 | 0.799 | 0.823 | 0.874 | 0.828 | 0.814 | 0.802 | 0.911 | 0.868 | 0.69 |  | 0.58 | 0.594 |  | 0.6 | 0.223 | 0.21 | 0.248 | 0.216 | 0.224
HCC-44 | 0.639 | 0.647 | 0.695 | 0.69 | 0.632 | 0.994 | 0.998 | 1.02 | 1.08 |  |  |  |  |  | 0.572 | 0.665 | 0.655 | 0.65 | 0.606
HCC-78 | 0.471 | 0.4 | 0.486 | 0.451 | 0.514 | 0.672 | 0.806 | 0.968 | 0.833 | 0.354 | 0.53 | 0.308 | 0.294 | 0.346 | 0.915 | 0.882 | 0.968 | 0.869 | 0.917
HCC-366 | 0.501 | 0.695 | 0.656 | 0.615 | 0.554 | 1.07 | 0.986 | 1.01 | 0.625 | 0.531 | 0.548 | 0.575 | 0.612 | 0.657 | 0.148 | 0.148 | 0.129 | 0.165 | 0.178
